Earlier results on 1 compound are cited in US20230073946A1, “AFFINITY PEPTIDE […] A[…] PROTECTION OF PROTEINS FROM OXIDATION” (ARIZONA BOARD OF REGENTS ON BEHALF OF THE UNIVERSITY OF …, priority 2020, published 2023).

This data set has as its system sugen/hypoxic PAH model. Conditions: cited from earlier work.

Take `CC1(C)CC(O)CC(C)(C)N1[O]` [TEMPOL]: for the setting “recently reported”, the “preventing pulmonary arterial remodeling” value was “not effective”. In addition, the “right ventricular hypertrophy and pulmonary arterial remodeling” value (sugen/hypoxic PAH model, reported) is reported as “failed to attenuate”.
